Patent US6737383B1, “Herbicidal oxadiazolidines” (priority 1999, dated 2004)

How the values were obtained:
[1] = tested on: bedstraw; test: Test B pre/postemergence bedstraw; format: in vivo, Galium aparine
How it was run: (§1)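 Herbicidal effect was estimated by eye on a ten-point control scale after plants spent twelve to sixteen days in a greenhouse following soil or foliar treatment. Foliar sprays targeted plants at one to four leaves; all doses were formulated in a non-phytotoxic solvent with surfactant.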

[2] = tested on: blackgrass; test: Test B pre/postemergence blackgrass; format: in vivo, Alopecurus myosuroides
How it was run: as §1

[3] = tested on: surinam grass; test: Test B pre/postemergence surinam grass; format: in vivo, Brachiaria decumbens
How it was run: as §1

[4] = tested on: cocklebur; test: Test B pre/postemergence cocklebur; format: in vivo, Xanthium strumarium
How it was run: as §1

[5] = tested on: corn; test: Test B pre/postemergence corn; format: in vivo, Zea mays
How it was run: as §1

[6] = tested on: crabgrass; test: Test B pre/postemergence crabgrass; format: in vivo, Digitaria sanguinalis
How it was run: as §1

[7] = tested on: giant foxtail; test: Test B pre/postemergence giant foxtail; format: in vivo, Setaria faberii
How it was run: as §1

[8] = tested on: morningglory; test: Test B pre/postemergence morningglory; format: in vivo, Ipomoea hederacea
How it was run: as §1

[9] = tested on: pigweed; test: Test B pre/postemergence pigweed; format: in vivo, Amaranthus retroflexus
How it was run: as §1

[10] = tested on: rape; test: Test B pre/postemergence rape; format: in vivo, Brassica napus
How it was run: as §1

[11] = tested on: soybean; test: Test B pre/postemergence soybean; format: in vivo, Glycine max
How it was run: as §1

[12] = tested on: sugar beet; test: Test B pre/postemergence sugar beet; format: in vivo, Beta vulgaris
How it was run: as §1

[13] = tested on: velvetleaf; test: Test B pre/postemergence velvetleaf; format: in vivo, Abutilon theophrasti
How it was run: as §1

[14] = tested on: wheat; test: Test B pre/postemergence wheat; format: in vivo, Triticum aestivum
How it was run: as §1

[15] = tested on: wild oat; test: Test B pre/postemergence wild oat; format: in vivo, Avena fatua
How it was run: as §1

[16] = tested on: purple nutsedge; test: Test B pre/postemergence purple nutsedge; format: in vivo, Cyperus rotundus
How it was run: as §1

[17] = Postemergence, Rate 31 g/ha, visual rating, scale 0 to 10 (0 no effect, 10 complete control)
[18] = Postemergence, Rate 62 g/ha, scale of 0 to 10, 0 is no effect, 10 is complete control
[19] = Postemergence, Rate 125 g/ha, scale 0 to 10, 0 is no effect, 10 is complete control
[20] = Preemergence, Rate 31 g/ha, visual rating, scale 0 to 10 (0 no effect, 10 complete control)
[21] = Preemergence, Rate 62 g/ha, scale 0 to 10 (0 no effect, 10 complete control)
[22] = Preemergence, Rate 125 g/ha, scale 0 to 10, 0 is no effect, 10 is complete control
[23] = Rate 250 g/ha, Postemergence, scale of 0 to 10 where 0 is no effect and 10 is complete control

CC(C)N(C(=O)n1oc(=O)n(C[Si](C)(C)C)c1=O)c1ccc(Cl)cc1 [Compound 548]
10: Bedstraw plant response rating [1, 22] | Bedstraw plant response rating (0 to 10 scale) ([1]; Preemergence, Rate 250 g/ha) | Crabgrass plant response rating (0 to 10 scale) ([6]; Preemergence, Rate 250 g/ha) | Giant foxtail plant response rating (0 to 10 scale) ([7]; Preemergence, Rate 250 g/ha)
2: B. signalgrass plant response rating [3, 22] | Redroot pigweed plant response rating (0 to 10 scale) ([9]; Preemergence, Rate 250 g/ha) | Plant response rating, Redroot pigweed [9, 23] | Rape plant response rating (0 to 10 scale) ([10]; Preemergence, Rate 250 g/ha) | Soybean plant response rating [11, 18] | Soybean plant response rating [11, 19] | Plant response rating, Soybean [11, 23] | Sugarbeets plant response rating (0 to 10 scale) ([12]; Preemergence, Rate 250 g/ha) | Plant response rating, Wheat [14, 23] | Wild oats plant response rating (0 to 10 scale) ([15]; Preemergence, Rate 250 g/ha)
0: Bedstraw plant response rating [1, 17] | Bedstraw plant response rating [1, 18] | Blackgrass plant response rating [2, 17] | Blackgrass plant response rating [2, 18] | Blackgrass plant response rating [2, 19] | Blackgrass plant response rating [2, 20] | Blackgrass plant response rating [2, 21] | B. signalgrass plant response rating [3, 17] | B. signalgrass plant response rating [3, 18] | B. signalgrass plant response rating [3, 19] | B. signalgrass plant response rating [3, 20] | B. signalgrass plant response rating [3, 21] | Plant response rating, B. signalgrass [3, 23] | Cocklebur plant response rating [4, 17] | Cocklebur plant response rating [4, 18] | Cocklebur plant response rating [4, 19] | Cocklebur plant response rating [4, 20] | Cocklebur plant response rating [4, 21] | Cocklebur plant response rating [4, 22] | Cocklebur plant response rating (0 to 10 scale) ([4]; Preemergence, Rate 250 g/ha) | Plant response rating, Cocklebur [4, 23] | Corn plant response rating [5, 17] | Corn plant response rating [5, 18] | Corn plant response rating [5, 19] | Corn plant response rating [5, 20] | Corn plant response rating [5, 21] | Corn plant response rating [5, 22] | Corn plant response rating (0 to 10 scale) ([5]; Preemergence, Rate 250 g/ha) | Plant response rating, Corn [5, 23] | Crabgrass plant response rating [6, 17] | Giant foxtail plant response rating [7, 17] | Giant foxtail plant response rating [7, 18] | Giant foxtail plant response rating [7, 19] | Plant response rating, Giant foxtail [7, 23] | Morningglory plant response rating [8, 21] | Morningglory plant response rating [8, 22] | Morningglory plant response rating (0 to 10 scale) ([8]; Preemergence, Rate 250 g/ha) | Redroot pigweed plant response rating [9, 17] | Redroot pigweed plant response rating [9, 18] | Redroot pigweed plant response rating [9, 19] | Redroot pigweed plant response rating [9, 21] | Redroot pigweed plant response rating [9, 22] | Rape plant response rating [10, 17] | Rape plant response rating [10, 19] | Rape plant response rating [10, 21] | Rape plant response rating [10, 22] | Soybean plant response rating [11, 21] | Soybean plant response rating [11, 22] | Soybean plant response rating (0 to 10 scale) ([11]; Preemergence, Rate 250 g/ha) | Sugarbeets plant response rating [12, 17] | Sugarbeets plant response rating [12, 18] | Sugarbeets plant response rating [12, 19] | Sugarbeets plant response rating [12, 21] | Sugarbeets plant response rating [12, 22] | Velvetleaf plant response rating [13, 17] | Velvetleaf plant response rating [13, 18] | Velvetleaf plant response rating [13, 19] | Velvetleaf plant response rating [13, 21] | Velvetleaf plant response rating [13, 22] | Velvetleaf plant response rating (0 to 10 scale) ([13]; Preemergence, Rate 250 g/ha) | Plant response rating, Velvetleaf [13, 23] | Wheat plant response rating [14, 17] | Wheat plant response rating [14, 18] | Wheat plant response rating [14, 19] | Wheat plant response rating [14, 21] | Wheat plant response rating [14, 22] | Wheat plant response rating (0 to 10 scale) ([14]; Preemergence, Rate 250 g/ha) | Wild oats plant response rating [15, 17] | Wild oats plant response rating [15, 18] | Wild oats plant response rating [15, 19] | Wild oats plant response rating [15, 21] | Wild oats plant response rating [15, 22] | Plant response rating, Wild oats [15, 23] | Nutsedge plant response rating [16, 17] | Nutsedge plant response rating [16, 19] | Nutsedge plant response rating [16, 21] | Nutsedge plant response rating [16, 22] | Nutsedge plant response rating (0 to 10 scale) ([16]; Preemergence, Rate 250 g/ha) | Plant response rating, Nutsedge [16, 23]
1: Morningglory plant response rating [8, 17] | Soybean plant response rating [11, 17]
8: Bedstraw plant response rating [1, 21] | Plant response rating, Morningglory [8, 23]
5: Crabgrass plant response rating [6, 19] | Morningglory plant response rating [8, 18]
7: Plant response rating, Rape [10, 23]
3: Blackgrass plant response rating [2, 22] | Blackgrass plant response rating (0 to 10 scale) ([2]; Preemergence, Rate 250 g/ha) | Plant response rating, Blackgrass [2, 23] | B. signalgrass plant response rating (0 to 10 scale, 0 is no effect, 10 is complete control) ([3]; Preemergence, Rate 250 g/ha) | Plant response rating, Sugarbeets [12, 23]
9: Bedstraw plant response rating [1, 20] | Plant response rating, Bedstraw [1, 23] | Crabgrass plant response rating [6, 21] | Crabgrass plant response rating [6, 22] | Giant foxtail plant response rating [7, 20] | Giant foxtail plant response rating [7, 21] | Giant foxtail plant response rating [7, 22]
4: Bedstraw plant response rating [1, 19] | Crabgrass plant response rating [6, 20]
